Results reported in patent US20110311483A1, “CRTH2 MODULATORS” (IRONWOOD PHARMACEUTICALS, INC., priority 2010, published 2011).

Columns and labels:
[1] = molecular target: T1, CRTH2 (Homo sapiens, UniProt Q9Y5Y4); test: Human Whole Blood CD11b Antagonist Assay (CD11b expression in eosinophils challenged with 15R-Methyl-PGD2); format: cell-based; settings: agonist 15R-Methyl-PGD2 10 nM, flow cytometry
T1 construct: polymorphonuclear cells (0.5 ml; 10^6/ml cells) in PBS containing 0.9 mM CaCl2 and 0.5 mM MgCl2) were preincubated with various concentrations of test compounds; endogenous in cells; host or cells: polymorphonuclear cells (eosinophils gated by side scatter and VLA-4)
T1 sequence (Q9Y5Y4 1-395): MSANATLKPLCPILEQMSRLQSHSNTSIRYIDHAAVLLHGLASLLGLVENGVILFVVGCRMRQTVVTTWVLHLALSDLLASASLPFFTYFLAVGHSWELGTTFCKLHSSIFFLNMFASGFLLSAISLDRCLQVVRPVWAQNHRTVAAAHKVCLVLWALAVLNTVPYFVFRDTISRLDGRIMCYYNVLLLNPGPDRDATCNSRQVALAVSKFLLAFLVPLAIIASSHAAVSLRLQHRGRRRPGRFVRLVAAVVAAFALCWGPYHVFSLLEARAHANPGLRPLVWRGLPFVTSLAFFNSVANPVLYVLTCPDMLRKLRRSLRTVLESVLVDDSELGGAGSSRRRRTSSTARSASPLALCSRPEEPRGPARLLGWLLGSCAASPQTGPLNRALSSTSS
Experimental: Human Whole Blood CD11b Antagonist Assay (modified from Nicholson, et al. Pulmonary Pharmacology and Therapeutics: 20 (2007); 52-59). The potential CRTH2 antagonist activity of certain compounds was tested in human whole blood using an assay that tests the ability of the compounds to block the CD11b expression in eosinophils by 15-R-methyl-PGD2. A CRTH2 antagonist should block CD11b expression by subsequently added 15-Methyl-PGD2. Human whole blood (200 μL) was incubated at 37° C. for 10 minutes in the presence of various concentrations of test compounds before being challenged with the agonist 15R-Methyl-PGD2 (10 nM). Reactions were terminated by the addition of ice-cold PBS+0.5% BSA+2 m MEDTA (1 mL) and centrifugation (300×g for 5 minutes at 4° C.) Cells were then incubated at 4° C. for 10 min in the presence of human IgG. Cells were then incubated for 30-45 min with a mixture of PE-Cy5-labeled mouse anti-human CD16 (10 μl; BD Biosciences) and FITC-labeled mouse anti-human CD11b (10 μL; Beckman Coulter.) After rinsing (1 mL ice-cold PBS+0.5% BSA+2 mMEDTA), red blood cells were lysed by the addition of 1 mL ice-cold H2O to the cell pellet for 30 sec-1 min immediately followed by the addition of 3.5% NaCl (300 μL.) Cells were then rinsed (2×−1 ml ice cold PBS+0.5% BSA+2 m MEDTA) and fixed in PBS containing 1% formaldehyde. The distribution of fluorescence intensities was measured by flow cytometry. Eosinophils were gated out on the basis of their granularity (high side scatter) and absence of CD-16. CD11b was then measured on this eosinophil population on the basis of fluorescence due to FITC. DPBS CD11b Antagonist Assay. The potential CRTH2 antagonist activity of certain compounds was tested using a CD11b expression assay using essentially the method described by Monneret et al. (J Pharmacol Exp Ther 304:349-55, 2003). Briefly, polymorphonuclear cells (0.5 ml; 10^6/ml cells) in PBS containing 0.9 mM CaCl2 and 0.5 mM MgCl2) were preincubated with various concentrations of test compounds at room temperature for 10 minutes before they were challenged with the agonist 15R-Methyl-PGD2 (10 nM). The incubations were terminated by the addition of ice-cold FACSFlow (BD Biosciences; Cat# 342003) and centrifugation (400 g for 5 minutes at 4° C.). The cells were then incubated for 30 minutes at 4° C. with a mixture of PE-labeled mouse anti-human VLA-4 (5 μl; BD Biosciences) and FITC-labeled mouse anti-human CD11b (10 μl; Beckman Coulter). […] The distribution of fluorescence intensities among 60,000 cells was measured by flow cytometry. Eosinophils were gated out on the basis of their granularity (high side scatter) and labeling with VLA-4 (PE fluorescence). CD11b was then measured in the eosinophil region on the basis of fluorescence due to FITC. […]

[2] = molecular target: T1, CRTH2; test: DPBS CD11b Antagonist Assay (CD11b expression in eosinophils, polymorphonuclear cells challenged with 15R-Methyl-PGD2); format: cell-based; settings: polymorphonuclear cells in PBS with CaCl2 and MgCl2; agonist 15R-Methyl-PGD2 10 nM; flow cytometry
Experimental: Human Whole Blood CD11b Antagonist Assay (modified from Nicholson, et al. Pulmonary Pharmacology and Therapeutics: 20 (2007); 52-59). The potential CRTH2 antagonist activity of certain compounds was tested in human whole blood using an assay that tests the ability of the compounds to block the CD11b expression in eosinophils by 15-R-methyl-PGD2. A CRTH2 antagonist should block CD11b expression by subsequently added 15-Methyl-PGD2. Human whole blood (200 μL) was incubated at 37° C. for 10 minutes in the presence of various concentrations of test compounds before being challenged with the agonist 15R-Methyl-PGD2 (10 nM). Reactions were terminated by the addition of ice-cold PBS+0.5% BSA+2 m MEDTA (1 mL) and centrifugation (300×g for 5 minutes at 4° C.) Cells were then incubated at 4° C. for 10 min in the presence of human IgG. Cells were then incubated for 30-45 min with a mixture of PE-Cy5-labeled mouse anti-human CD16 (10 μl; BD Biosciences) and FITC-labeled mouse anti-human CD11b (10 μL; Beckman Coulter.) After rinsing (1 mL ice-cold PBS+0.5% BSA+2 mMEDTA), red blood cells were lysed by the addition of 1 mL ice-cold H2O to the cell pellet for 30 sec-1 min immediately followed by the addition of 3.5% NaCl (300 μL.) Cells were then rinsed (2×−1 ml ice cold PBS+0.5% BSA+2 m MEDTA) and fixed in PBS containing 1% formaldehyde. The distribution of fluorescence intensities was measured by flow cytometry. Eosinophils were gated out on the basis of their granularity (high side scatter) and absence of CD-16. CD11b was then measured on this eosinophil population on the basis of fluorescence due to FITC. DPBS CD11b Antagonist Assay. The potential CRTH2 antagonist activity of certain compounds was tested using a CD11b expression assay using essentially the method described by Monneret et al. (J Pharmacol Exp Ther 304:349-55, 2003). Briefly, polymorphonuclear cells (0.5 ml; 10^6/ml cells) in PBS containing 0.9 mM CaCl2 and 0.5 mM MgCl2) were preincubated with various concentrations of test compounds at room temperature for 10 minutes before they were challenged with the agonist 15R-Methyl-PGD2 (10 nM). The incubations were terminated by the addition of ice-cold FACSFlow (BD Biosciences; Cat# 342003) and centrifugation (400 g for 5 minutes at 4° C.). The cells were then incubated for 30 minutes at 4° C. with a mixture of PE-labeled mouse anti-human VLA-4 (5 μl; BD Biosciences) and FITC-labeled mouse anti-human CD11b (10 μl; Beckman Coulter). The cells were then incubated with Optilyse C (0.25 ml; Beckman Coulter) for 15 minutes, centrifuged, and then fixed in PBS (0.4 ml; calcium and magnesium free) containing 1% formaldehyde. The distribution of fluorescence intensities among 60,000 cells was measured by flow cytometry. Eosinophils were gated out on the basis of their granularity (high side scatter) and labeling with VLA-4 (PE fluorescence). CD11b was then measured in the eosinophil region on the basis of fluorescence due to FITC. All data were corrected for the value obtained for the corresponding isotope control antibody.

IC50 [1] [µM] | IC50 [2] [µM] | Structure (SMILES)
0.1 to 0.6 | 0.1 to 0.6 | Cc1c(C(=O)c2ccccc2S(=O)(=O)N2CCOCC2)c2c(n1CC(=O)O)CCC(C)(C)C2 [Compound I-1, 2-(2,5,5-Trimethyl-3-(2-(morpholinosulfonyl)benzoyl)-4,5,6,7-tetrahydro-1H-indol-1-yl)acetic acid]
> 0.6 | 0.1 to 0.6 | CCOC(=O)Cn1c(C)c(Cc2ccccc2S(=O)(=O)N(C)CC)c2c1CC(C)(C)CC2=O [Compound I-2, Ethyl 2-(3-(2-(N-ethyl-N-methylsulfamoyl)benzyl)-2,6,6-trimethyl-4-oxo-4,5,6,7-tetrahydro-1H-indol-1-yl)acetate]
0.01 to 0.1 | < 0.01 | CCN(C)S(=O)(=O)c1ccccc1Cc1c2c(n(CC(=O)O)c1C)CC(C)(C)CC2=O [Compound I-3, 2-(3-(2-(N-ethyl-N-methylsulfamoyl)benzyl)-2,6,6-trimethyl-4-oxo-4,5,6,7-tetrahydro-1H-indol-1-yl)acetic acid]
< 0.01 | < 0.01 | Cc1c(Cc2ccccc2S(=O)(=O)N2CCCCC2)c2c(n1CC(=O)O)CC(C)(C)CC2=O [Compound I-4, 2-(2,6,6-Trimethyl-4-oxo-3-(2-(piperidin-1-ylsulfonyl)benzyl)-4,5,6,7-tetrahydro-1H-indol-1-yl)acetic acid]
– | > 0.6 | CCOC(=O)C(C)n1c(C)c(Cc2ccccc2S(=O)(=O)N2CCCC2)c2c1CC(C)(C)CC2=O (stereo not drawn) [Compound I-5, Ethyl 2-(2,6,6-trimethyl-4-oxo-3-(2-(pyrrolidin-1-ylsulfonyl)benzyl)-4,5,6,7-tetrahydro-1H-indol-1-yl)propanoate]
